From paper PMC7037732, “Synthesis of Combretastatin A-4 and 3′-Aminocombretastatin A-4 derivatives with Aminoacid Containing Pendants and Study of their Interaction with Tubulin and as Downregulators of the VEGF, hTERT and c-Myc Gene Expression” (Molecules, 2020) come the findings set out here.

By IC50 is commonly meant the concentration at which inhibition is half-maximal. Low readings indicate higher potency, high ones lower potency.

The test system of test [1] is HEK-293 (human embryonic kidney cells). In words: Inhibition of cell proliferation (MTT), nontumor HEK-293. The conditions noted are these: Homo sapiens, 48 h of treatment (footnote), average ±SD of three experiments. It counts as cell-based. An excerpt: (§1) The ability of the synthetic compounds to inhibit cell proliferation was established by means of their IC50 values towards the tumor cell lines HT-29 (human colon adenocarcinoma), MCF-7 (breast adenocarcinoma) and A-549 (human pulmonary adenocarcinoma), as well as towards the nontumor cell line HEK-293 (human embryonic kidney cells). Results for compounds derived from CA-4 are presented in Table 1, along with the calculated selectivity indexes SIA (for HT-29 cell line), SIB (for MCF-7 cell line) and SIc (for A-549 cell line), obtained by dividing the IC50 values of the nontumor cell line (HEK-293) by those of the corresponding tumor cell line. The higher the SI index, the higher the therapeutic safety margin.
(§2) Cell culture media were purchased from Gibco (Grand Island, NY, USA). Fetal bovine serum (FBS) was a product of Harlan-Seralab (Belton, U.K.). Supplements and other chemicals not listed in this section were obtained from Sigma Chemical Co. (St. Louis, MO, USA). Plastics for cell culture were supplied by Thermo Fischer Scientific Inc., Madrid, Spain. All tested compounds were dissolved in DMSO at a concentration of 10 μg/mL and stored at −20 °C until use. HT-29, MCF-7, A-549 and HEK-293 cell lines were maintained in a Dulbecco’s modified Eagle’s medium (DMEM) containing glucose (1 g/L), glutamine (2 mM), penicillin (50 IU/mL), streptomycin (50 μg/mL) and amphotericin B (1.25 μg/mL), supplemented with 10% FBS. Cells from human non-small lung carcinoma (clone A549; ATCC n°: CCL2, MD, USA) were routinely grown at 37 °C in a humidified atmosphere of 5% CO2. Cells were maintained in a standard medium composed of RPMI 1640 (Lonza, Group Ltd., Basel, Switzerland), supplemented with 10% fetal bovine serum (FBS), 2 mM L-glutamine and 1% penicillin and streptomycin (Invitrogen). Cells were free from mycoplasma as determined by MycoAlert tests (Lonza, Group Ltd., Basel, Switzerland).
(§3) A total of 5 × 10^3 HT-29, MCF-7 or HEK-293 cells in a total volume of 100 μL of their respective growth media were incubated with serial dilutions of the tested compounds. The 3-(4,5-dimethylthiazol-2-yl)-2,5-diphenyltetrazolium bromide (MTT; Sigma Chemical Co.) dye reduction assay in a 96-well microplate was used, as previously described. […] The resulting formazan was dissolved in 150 μL of 0.04 N HCl/2-propanol and read at 550 nm. All determinations were carried out in triplicate.

For test [2], the system named is A-549 (human pulmonary adenocarcinoma). As to the kind of experiment: Inhibition of cell proliferation (MTT), A-549. It counts as cell-based. The conditions noted are these: 48 h of treatment (footnote), average ±SD of three experiments.
Text: as §1
as §2, with “Switzerland). […]” for “Switzerland).”

Test [3] deals with HT-29 (human colon adenocarcinoma). In words: Inhibition of cell proliferation (MTT), HT-29. It counts as cell-based. The conditions noted are these: Homo sapiens, 48 h of treatment (footnote), average ±SD of three experiments.
Text: as §1, §2, §3

The subject of test [4] is MCF-7 (breast adenocarcinoma). As to the kind of experiment: Inhibition of cell proliferation (MTT), MCF-7. It counts as cell-based, human. The conditions noted are these: Homo sapiens, 48 h of treatment (footnote), average ±SD of three experiments.
Text: as §1, §2, §3

The test system of the next test is purified tubulin. In words: Critical concentration (CrC) for the assembly of purified tubulin in GAB. It counts as biochemical. The conditions noted are these: compound 27.5 μM, tubulin 25 μM, glycerol (GAB) and GTP assembly buffer; control 7.9 ± 1.2. The method, then:
The effect on the self-assembly of tubulin was determined by measuring the critical concentration (CrC).

The test system of the next test is A-549 cells. In words: Cell cycle distribution by flow cytometry. It counts as cell-based, human. The conditions noted are these: A-549, 24 h. The method, then:
The effects of some CA-4 derivatives on the cell cycle were evaluated in A-549 cells.
The effects of some AmCA-4 derivatives on the cell cycle were also evaluated in A-549 cells.
The supernatant and trypsinated cells were harvested and then centrifuged (1200 rpm, 5 min, 4 °C). The cell pellet was resuspended in 1 mL of cold 70% ethanol for 30 min at −20 °C. Cells were centrifuged (2000 rpm, 5 min, 4 °C) to remove ethanol, and then the cell pellet was resuspended in the staining mix containing 50 µg/mL propidium iodide (Molecular Probes, France) and 100 µg/mL RNAse A (Sigma, France) in PBS for 20 min at room temperature in darkness. Samples were analyzed on a Becton Dickinson FACScan flow cytometer using the CellQuest software, which was also used to determine the percentage of cells in the G2/M phases of the cell cycle. PI was excited at 488 nm, and fluorescence analyzed at 620 nm on channel Fl-2.

Setting [5] is: Homo sapiens, A549, 48 h, Table 1.
Where [6] appears, read: concentration per compound as in Tables 6 and 7.
The mark [7] stands for this setting: Homo sapiens, A549, 48 h, Table 2.

Turning to `COC(=O)[C@@H](NC(=O)COc1cc(/C=C\c2cc(OC)c(OC)c(OC)c2)ccc1OC)C(C)C` [Compound 3.2], the 50% inhibitory concentration (IC50) in test [1] (HEK293, 48 h, Table 1) came to 5 ± 2 µM; in test [2] (setting [5]), 24 ± 1 µM; in test [3] (HT-29, 48 h, Table 1), 24 ± 4 µM; in test [4] (MCF7, 48 h, Table 1), 12 ± 6 µM. Besides, the “CrC (critical concentration)” value in the test with purified tubulin was determined as 11.7 ± 2.3 µM. Also, the G0/G1 in the test with A-549 cells (75 μM) is 42 ± 3%. For the same molecule, the G2/M with A-549 cells (75 μM) is on record as 44 ± 1%. The same molecule came in with a S in the test on A-549 cells (75 μM) of 14 ± 4%.

Turning to `COC(=O)[C@H](CC(C)C)NC(=O)COc1cc(/C=C\c2cc(OC)c(OC)c(OC)c2)ccc1OC` [Compound 3.3], the IC50 in test [1] (HEK293, 48 h, Table 1) was 9 ± 2 µM; in test [2] (setting [5]) it was less than 10 µM; in test [2] (Table 1) it was 8 ± 1 µM; in test [3] (HT-29, 48 h, Table 1), 29 ± 6 µM; in test [4] (MCF7, 48 h, Table 1), 19 ± 6 µM. Also, in the test with purified tubulin, the “CrC (critical concentration)” value turned out to be 9.4 ± 1.4 µM. The molecule further had a G0/G1 in the test with A-549 cells (75 μM) of 45 ± 6%. This molecule also showed a G2/M in the test with A-549 cells (75 μM) of 36 ± 4%. This molecule showed a S in the test on A-549 cells (75 μM) of 19 ± 2%.

On to `COC(=O)[C@@H]1CCCN1C(=O)COc1cc(/C=C\c2cc(OC)c(OC)c(OC)c2)ccc1OC` [Compound 3.5], for which the half-inhibitory concentration (IC50) is 20 ± 1 µM in test [1] (HEK293, Table 1); 50 ± 10 µM in test [2] (setting [5]); 48 ± 5 µM in test [3] (HT-29, Table 1); 24 ± 2 µM in test [4] (MCF7, Table 1). For the same molecule, the “CrC (critical concentration)” value in the test on purified tubulin was 10.4 ± 2.0 µM. This molecule also came in with a G0/G1 in the test on A-549 cells (100 μM) of 77 ± 2%. Moreover, in the test on A-549 cells (100 μM), the G2/M was found to be 7 ± 1%. Moreover, the S in the test with A-549 cells (100 μM) was determined as 16 ± 2%. Besides, the “Effect on the cell cycle” value in the test with A-549 cells (setting [6]) is given as “do not exert any significant effect on the cells”.

Take `COC(=O)[C@H](CCSC)NC(=O)COc1cc(/C=C\c2cc(OC)c(OC)c(OC)c2)ccc1OC` [Compound 3.9]: the 50% inhibitory concentration (IC50) in test [1] (HEK293, Table 1) is 8 ± 1 µM; in test [2] (setting [5]), less than 10 µM; in test [2] (Table 1) it was 10 ± 2 µM; in test [3] (HT-29, Table 1), 16 ± 7 µM; in test [4] (MCF7, Table 1) it was 10 ± 3 µM. In addition, the “CrC (critical concentration)” value in the test on purified tubulin turned out to be 8.06 ± 0.04 µM. In the test on A-549 cells (75 μM), this molecule came in with a G0/G1 of 47 ± 4%. This molecule also gave a G2/M in the test with A-549 cells (75 μM) of 36 ± 1%. In addition, the S with A-549 cells (75 μM) was 17 ± 3%.

In the case of `COc1ccc(/C=C\c2cc(OC)c(OC)c(OC)c2)cc1OCC(=O)N1CCC[C@H]1C(=O)O` [Compound 4.5], the IC50 in test [1] (HEK293, 48 h, Table 1) is 45 ± 16 µM; in test [2] (setting [5]), 110 ± 10 µM; in test [3] (HT-29, 48 h, Table 1) it was 26 ± 13 µM; in test [4] (MCF7, 48 h, Table 1), 83 ± 16 µM. Also, in the test with purified tubulin, the “CrC (critical concentration)” value is on record as 9.2 ± 0.5 µM. In the test on A-549 cells (75 μM), the G0/G1 is 72%. In addition, the G2/M in the test on A-549 cells (75 μM) is reported as 16%. The same molecule gave a S in the test with A-549 cells (75 μM) of 12%. Also, in the test on A-549 cells (setting [6]), the “Effect on the cell cycle” value is on record as “do not exert any significant effect on the cells”.

In the case of `COC(=O)[C@H]1CCCN1C(=O)COc1cc(/C=C\c2cc(OC)c(OC)c(OC)c2)ccc1OC` [Compound 5.4], the 50% inhibitory concentration (IC50) in test [1] (HEK293, Table 1) stood at 5.7 ± 0.8 µM; in test [2] (setting [5]), 15 ± 1 µM; in test [3] (HT-29, Table 1), 50 µM; in test [4] (MCF7, Table 1) it was 10 ± 4 µM. Also, the “CrC (critical concentration)” value in the test with purified tubulin is 9 ± 3 µM. In the test on A-549 cells (75 μM), this molecule came in with a G0/G1 of 36 ± 4%. The same molecule yielded a G2/M in the test with A-549 cells (75 μM) of 50 ± 1%. For the same molecule, in the test with A-549 cells (75 μM), the S amounted to 14 ± 3%.

Regarding `COC(=O)[C@@H](CO)NC(=O)COc1cc(/C=C\c2cc(OC)c(OC)c(OC)c2)ccc1OC` [Compound 5.5], the half-maximal inhibitory concentration (IC50) in test [1] (HEK293, 48 h, Table 1) amounted to 9 ± 3 µM; in test [2] (setting [5]), 28 ± 1 µM; in test [3] (HT-29, 48 h, Table 1), 11 ± 2 µM; in test [4] (MCF7, 48 h, Table 1), 7 ± 2 µM. For the same molecule, the “CrC (critical concentration)” value with purified tubulin came to 9.2 ± 0.9 µM. In addition, the “cells accumulated in the G2/M phase” value in the test with A-549 cells (concentration per compound as in Tables 6 and 7, control 14%) is listed as 50–70%.

Turning to `COc1ccc(/C=C\c2cc(OC)c(OC)c(OC)c2)cc1OCC(=O)N[C@@H](C(=O)O)C(C)C` [Compound 6.1], the IC50 worked out at 39 ± 6 µM in test [1] (HEK293, Table 1); 54 ± 7 µM in test [2] (setting [5]); 45 ± 5 µM in test [3] (HT-29, Table 1); 46 ± 3 µM in test [4] (MCF7, Table 1). The “CrC (critical concentration)” value in the test on purified tubulin was 9.4 ± 1.3 µM. Also, in the test with A-549 cells (100 μM), the G0/G1 is 67 ± 2%. Moreover, the G2/M with A-549 cells (100 μM) was 13 ± 1%. Besides, the S in the test on A-549 cells (100 μM) is listed as 20 ± 2%. The “Effect on the cell cycle” value with A-549 cells (setting [6]) is “do not exert any significant effect on the cells”.

Regarding `COc1ccc(/C=C\c2cc(OC)c(OC)c(OC)c2)cc1NC(=O)[C@H](N)CC(C)C` [Compound 10.2], the concentration for half-maximal inhibition (IC50) in test [1] (HEK293, 48 h, Table 2) worked out at 0.43 ± 0.04 µM; in test [2] (setting [7]), 0.157 ± 0.007 µM; in test [3] (HT-29, 48 h, Table 2), 1.05 ± 0.14 µM; in test [4] (MCF7, 48 h, Table 2) it was 2 ± 0.9 µM. Moreover, the “CrC (critical concentration)” value with purified tubulin was determined as 7.0 ± 0.5 µM. Further, in the test on A-549 cells (0.5 µM), the G0/G1 was 63 ± 4%. The same molecule displayed a G2/M in the test with A-549 cells (0.5 µM) of 22 ± 2%. The molecule further came in with a S in the test on A-549 cells (0.5 µM) of 16 ± 3%. The “Effect on the cell cycle” value in the test with A-549 cells (setting [6]) was “do not accumulate a high percentage of cells in phase G2/M”.

Consider `COc1ccc(/C=C\c2cc(OC)c(OC)c(OC)c2)cc1NC(=O)[C@H]1CCCN1` [Compound 10.4], for which the 50% inhibitory concentration (IC50) in test [1] (HEK293, 48 h, Table 2) was 3 ± 0.6 µM; in test [2] (setting [7]), 7.03 ± 0.22 µM; in test [3] (HT-29, 48 h, Table 2), 4.4 ± 1.9 µM; in test [4] (MCF7, 48 h, Table 2), 0.6 ± 0.14 µM. In the test on purified tubulin, the “CrC (critical concentration)” value was found to be 8.7 ± 1.2 µM.
